Test results as given in patent publication US20030032640A1, “Novel composition” (priority 2000, published 2003).
Counter-ions that a name gives are not always drawn.

How the values were obtained:
[1] = molecular target: 5HT4 receptor (Homo sapiens, UniProt Q13639); details: from the cited literature; cited from earlier work
[2] = Cohesiveness and flowability of drug substance and granules; type: physicochemical; details: HCl salt crystallised from ethanol/IMS with C5-C10 hydrocarbon
Source text: The second aspect of the newly recognised problem, is the discovery that the SB 207266 HCl salt produced by these processes is very cohesive and has poor flowability/flow characteristics.

[3] = Particle size (DV 90/50/10) of batches of SB-207266-A made by the Description 1 process; type: physicochemical; details: for DV 10 / DV 50 / DV 90: individual batch, hydrochloride; for DV 10: 10% by volume of the material is less than this size; for DV 50: 50% by volume of the material is less than this size; for DV 90: 90% by volume of the material is less than this size
Source text: The first aspect of the newly recognised problem is that such processes produce the SB 207266 hydrochloride salt in the form of particles of extremely small particle size.
DV 90, DV 50 and DV 10 respectively mean that 90%, 50% and 10% by volume of the material is less than the micron size specified.

[4] = Bulk density of the small-particle size HCl salt; type: physicochemical; details: densifies on addition of water
Source text: The fourth aspect of the newly recognised problem is that the small-particle size SB-207266 HCl salt has a low bulk density, densifying on the addition of water. This means that less material can be added to a mixer of fixed volume, leading to a less efficient manufacturing process as large volumes of equipment have to be used for relatively small volumes of drug (smaller throughput in plant).

5HT4 receptor, sequence (Q13639 whole entry): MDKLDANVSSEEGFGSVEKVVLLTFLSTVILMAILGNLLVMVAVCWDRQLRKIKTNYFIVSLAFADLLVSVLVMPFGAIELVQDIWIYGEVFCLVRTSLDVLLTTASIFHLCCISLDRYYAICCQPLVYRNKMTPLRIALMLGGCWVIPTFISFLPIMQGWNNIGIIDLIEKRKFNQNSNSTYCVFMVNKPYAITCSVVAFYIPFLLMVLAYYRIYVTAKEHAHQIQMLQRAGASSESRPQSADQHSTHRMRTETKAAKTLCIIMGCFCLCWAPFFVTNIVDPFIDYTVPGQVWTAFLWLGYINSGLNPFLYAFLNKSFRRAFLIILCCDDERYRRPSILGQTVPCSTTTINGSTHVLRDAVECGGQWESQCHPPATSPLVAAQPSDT

CCCCN1CCC(CNC(=O)c2c3n(c4ccccc24)CCCO3)CC1 [SB 207266, N-[(1-^nbutyl-4-piperidinyl)methyl]-3,4-dihydro-2H-[1,3]oxazino[3,2-a]indole-10-carboxamide]
selectivity for the 5HT4 receptor over other 5HT receptors [1]: highly selective

CCCCN1CCC(CNC(=O)c2c3n(c4ccccc24)CCCO3)CC1 [SB-207266-A, N-[(1-butyl-4-piperidinyl)methyl]-3,4-dihydro-2H-[1,3]-oxazino[3,2-α]indole-10-carboxamide hydrochloride]
cohesiveness [2]: very cohesive | flowability/flow characteristics [2]: poor | DV 10, average of batches ([3]; average of the five batches): 1.5 μm | DV 50, average of batches ([3]; average of the five batches): 5.8 μm | DV 90, average of batches ([3]; average of the five batches): 14.4 μm | DV 10 ([3]; listed as BDC-G-02C): 1.5 μm | DV 10 ([3]; listed as BDC-G-03C): 1.8 μm | DV 10 ([3]; listed as BDC-G-04C): 1.4 μm | DV 10 ([3]; listed as BDC-G-05C): 1.5 μm | DV 10 ([3]; listed as BDC-H-01C): 1.4 μm | DV 50 ([3]; listed as BDC-G-02C): 5.7 μm | DV 50 ([3]; listed as BDC-G-03C): 6.8 μm | DV 50 ([3]; listed as BDC-G-04C): 5.3 μm | DV 50 ([3]; listed as BDC-G-05C): 5.8 μm | DV 50 ([3]; listed as BDC-H-01C): 5.3 μm | DV 90 ([3]; listed as BDC-G-02C): 13.8 μm | DV 90 ([3]; listed as BDC-G-03C): 16.4 μm | DV 90 ([3]; listed as BDC-G-04C): 14.4 μm | DV 90 ([3]; listed as BDC-G-05C): 14.6 μm | DV 90 ([3]; listed as BDC-H-01C): 12.8 μm | bulk density [4]: low
